Here are results for 22 compounds from patent US11919901B2 (Syndax Pharmaceuticals, Inc., priority 2021, dated 2024).

Molecules are shown by their SMILES.

This experiment deals with MV4-11 cells. The experiment in a line: Cell proliferation assay MV4;11 (CellTiter-Glo, 72 hours). It is filed as cell-based. To be noted: Homo sapiens; MV4;11 leukemia cell line, 72 hours; read-out: MV4; 11 IC50. The essentials:
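Luminescent CellTiter-Glo readout after 72 h culture, 37 °C, 5% CO2, expressed relative to vehicle-treated wells, with maximal inhibition taken at the highest dose. MLL-rearranged MV4-11 leukemia cells; final compound range 0.632 to 2000 nM in eight steps.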
In general terms: In ATP-based viability assays light output follows the ATP content of the culture.

In the case of `CCN(C(=O)c1cc(F)ccc1Oc1cncnc1N1CC2(CCN(C[C@@H]3CC[C@@H](NC(=O)NCC(F)F)CO3)CC2)C1)C(C)C` [Example 41, 2-((4-(7-(((2S,5R)-5-(3-(2,2-Difluoroethyl)ureido)tetrahydro-2H-pyran-2-yl)methyl)-2,7-diazaspiro[3.5]nonan-2-yl)pyrimidin-5-yl)oxy)-N-ethyl-5-fluoro-N-isopropylbenzamide], the IC50 lay in the range of 100 to 1000 nM.

For the compound `CCN(C(=O)c1cc(F)ccc1Oc1cncnc1N1CC2(CCN(C[C@@H]3CC[C@@H](NC(=O)NCC4CC4)CO3)CC2)C1)C(C)C` [Example 42, 2-((4-(7-(((2S,5R)-5-(3-(Cyclopropylmethyl)ureido)tetrahydro-2H-pyran-2-yl)methyl)-2,7-diazaspiro[3.5]nonan-2-yl)pyrimidin-5-yl)oxy)-N-ethyl-5-fluoro-N-isopropylbenzamide], the IC50 lay within 100 to 1000 nM.

In the case of `CCS(=O)(=O)N[C@@H]1CC[C@@H](CN2CCC3(CC2)CN(c2ncncc2Oc2ccc(F)cc2C(=O)N(CCC#N)C(C)C)C3)OC1` [Example 43, N-(2-Cyanoethyl)-2-((4-(7-(((2S,5R)-5-(ethylsulfonamido)tetrahydro-2H-pyran-2-yl)methyl)-2,7-diazaspiro[3.5]nonan-2-yl)pyrimidin-5-yl)oxy)-5-fluoro-N-isopropylbenzamide], the IC50 was 100 to 1000 nM.

On to `CCS(=O)(=O)N[C@@H]1CC[C@@H](CN2CCC3(CC2)CN(c2ncncc2Oc2ccc(F)cc2C(=O)N(C(C)C)C2CC(F)(F)C2)C3)OC1` [Example 44, N-(3,3-Difluorocyclobutyl)-2-((4-(7-(((2S,5R)-5-(ethylsulfonamido)tetrahydro-2H-pyran-2-yl)methyl)-2,7-diazaspiro[3.5]nonan-2-yl)pyrimidin-5-yl)oxy)-5-fluoro-N-isopropylbenzamide], for which the IC50 is below 100 nM.

Take `CCN(C(=O)c1cc(F)ccc1Oc1cncnc1N1CC2(CCN(C[C@@H]3CC[C@@H](NS(=O)(=O)c4ccccc4)CO3)CC2)C1)C(C)C` [Example 45, N-Ethyl-5-fluoro-N-isopropyl-2-((4-(7-(((2S,5R)-5-(phenylsulfonamido)tetrahydro-2H-pyran-2-yl)methyl)-2,7-diazaspiro[3.5]nonan-2-yl)pyrimidin-5-yl)oxy)benzamide]: the IC50 is below 100 nM.

`CCS(=O)(=O)N[C@@H]1CC[C@@H](CN2CCC3(CC2)CN(c2ncncc2Oc2ccc(F)cc2C(=O)N(C(C)C)[C@@H]2CCOC2)C3)OC1` [Example 46, 2-((4-(7-(((2S,5R)-5-(Ethylsulfonamido)tetrahydro-2H-pyran-2-yl)methyl)-2,7-diazaspiro[3.5]nonan-2-yl)pyrimidin-5-yl)oxy)-5-fluoro-N-isopropyl-N-((R)-tetrahydrofuran-3-yl)benzamide]: the IC50 is below 100 nM.

For `CC(C)N(CC(F)F)C(=O)c1cc(F)ccc1Oc1cncnc1N1CC2(CCN(C[C@@H]3CC[C@@H](NS(=O)(=O)C4CC4)CO3)CC2)C1` [Example 47, 2-((4-(7-(((2S,5R)-5-(Cyclopropanesulfonamido)tetrahydro-2H-pyran-2-yl)methyl)-2,7-diazaspiro[3.5]nonan-2-yl)pyrimidin-5-yl)oxy)-N-(2,2-difluoroethyl)-5-fluoro-N-isopropylbenzamide], the IC50 was below 100 nM.

For the compound `CCS(=O)(=O)N[C@@H]1CC[C@@H](CN2CCC3(CC2)CN(c2ncncc2Oc2ccc(F)cc2C(=O)N(C(C)C)C2COC2)C3)OC1` [Example 48, 2-((4-(7-(((2S,5R)-5-(Ethylsulfonamido)tetrahydro-2H-pyran-2-yl)methyl)-2,7-diazaspiro[3.5]nonan-2-yl)pyrimidin-5-yl)oxy)-5-fluoro-N-isopropyl-N-(oxetan-3-yl)benzamide], the IC50 was below 100 nM.

As for `CCN(C(=O)c1cc(F)ccc1Oc1cncnc1N1CC2(CCN(C[C@@H]3CC[C@@H](NS(=O)(=O)N(C)C)CO3)CC2)C1)C(C)C` [Example 49, 2-((4-(7-(((2S,5R)-5-((N,N-Dimethylsulfamoyl)amino)tetrahydro-2H-pyran-2-yl)methyl)-2,7-diazaspiro[3.5]nonan-2-yl)pyrimidin-5-yl)oxy)-N-ethyl-5-fluoro-N-isopropylbenzamide], the IC50 is below 100 nM.

As to `COCCN(C(=O)c1cc(F)ccc1Oc1cncnc1N1CC2(CCN(C[C@@H]3CC[C@@H](NS(=O)(=O)C4CC4)CO3)CC2)C1)C(C)C` [Example 51, 2-((4-(7-(((2S,5R)-5-(Cyclopropanesulfonamido)tetrahydro-2H-pyran-2-yl)methyl)-2,7-diazaspiro[3.5]nonan-2-yl)pyrimidin-5-yl)oxy)-5-fluoro-N-isopropyl-N-(2-methoxyethyl)benzamide], the IC50 is below 100 nM.

Regarding `CCN(C(=O)c1cc(F)ccc1Oc1cncnc1N1CC2(CCN(C[C@@H]3CC[C@@H](NS(=O)(=O)c4ccc(C)cc4)CO3)CC2)C1)C(C)C` [Example 55, N-Ethyl-5-fluoro-N-isopropyl-2-((4-(7-(((2S,5R)-5-((4-methylphenyl)sulfonamido)tetrahydro-2H-pyran-2-yl)methyl)-2,7-diazaspiro[3.5]nonan-2-yl)pyrimidin-5-yl)oxy)benzamide], the IC50 was below 100 nM.

On to `CCN(C(=O)c1cc(F)ccc1Oc1cncnc1N1CC2(CCN(C[C@@H]3CC[C@@H](NS(=O)(=O)c4ccccc4C)CO3)CC2)C1)C(C)C` [Example 56, N-Ethyl-5-fluoro-N-isopropyl-2-((4-(7-(((2S,5R)-5-((2-methylphenyl)sulfonamido)tetrahydro-2H-pyran-2-yl)methyl)-2,7-diazaspiro[3.5]nonan-2-yl)pyrimidin-5-yl)oxy)benzamide], for which the IC50 is below 100 nM.

In the case of `CCN(C(=O)c1cc(F)ccc1Oc1cncnc1N1CC2(CCN(C[C@@H]3CC[C@@H](NS(=O)(=O)c4cccc(Cl)c4)CO3)CC2)C1)C(C)C` [Example 57, 2-((4-(7-(((2S,5R)-5-((3-Chlorophenyl)sulfonamido)tetrahydro-2H-pyran-2-yl)methyl)-2,7-diazaspiro[3.5]nonan-2-yl)pyrimidin-5-yl)oxy)-N-ethyl-5-fluoro-N-isopropylbenzamide], the IC50 was below 100 nM.

Regarding `CCN(C(=O)c1cc(F)ccc1Oc1cncnc1N1CC2(CCN(C[C@@H]3CC[C@@H](NS(=O)(=O)c4ccccn4)CO3)CC2)C1)C(C)C` [Example 58, N-ethyl-5-fluoro-N-isopropyl-2-((4-(7-(((2S,5R)-5-(pyridine-2-sulfonamido)tetrahydro-2H-pyran-2-yl)methyl)-2,7-diazaspiro[3.5]nonan-2-yl)pyrimidin-5-yl)oxy)benzamide], the IC50 is below 100 nM.

In the case of `CCN(C(=O)c1cc(F)ccc1Oc1cncnc1N1CC2(CCN(C[C@@H]3CC[C@@H](NS(=O)(=O)c4ccccc4Cl)CO3)CC2)C1)C(C)C` [Example 59, 2-((4-(7-(((2S,5R)-5-((2-Chlorophenyl)sulfonamido)tetrahydro-2H-pyran-2-yl)methyl)-2,7-diazaspiro[3.5]nonan-2-yl)pyrimidin-5-yl)oxy)-N-ethyl-5-fluoro-N-isopropylbenzamide], the IC50 was below 100 nM.

As for `CCN(C(=O)c1cc(F)ccc1Oc1cncnc1N1CC2(CCN(C[C@@H]3CC[C@@H](NS(=O)(=O)c4cccc(C)c4)CO3)CC2)C1)C(C)C` [Example 60, N-ethyl-5-fluoro-N-isopropyl-2-((4-(7-(((2S,5R)-5-((3-methylphenyl)sulfonamido)tetrahydro-2H-pyran-2-yl)methyl)-2,7-diazaspiro[3.5]nonan-2-yl)pyrimidin-5-yl)oxy)benzamide], the IC50 is below 100 nM.

As to `CCN(C(=O)c1cc(F)ccc1Oc1cncnc1N1CC2(CCN(C[C@@H]3CC[C@@H](NS(=O)(=O)c4ccc(Cl)cc4)CO3)CC2)C1)C(C)C` [Example 61, 2-((4-(7-(((2S,5R)-5-((4-Chlorophenyl)sulfonamido)tetrahydro-2H-pyran-2-yl)methyl)-2,7-diazaspiro[3.5]nonan-2-yl)pyrimidin-5-yl)oxy)-N-ethyl-5-fluoro-N-isopropylbenzamide], the IC50 is below 100 nM.

For the compound `CCN(C(=O)c1cc(F)ccc1Oc1cncnc1N1CC2(CCN(C[C@@H]3CC[C@@H](NS(=O)(=O)c4ccc(OC)cc4)CO3)CC2)C1)C(C)C` [Example 62, N-Ethyl-5-fluoro-N-isopropyl-2-((4-(7-(((2S,5R)-5-((4-methoxyphenyl)sulfonamido)tetrahydro-2H-pyran-2-yl)methyl)-2,7-diazaspiro[3.5]nonan-2-yl)pyrimidin-5-yl)oxy)benzamide], the IC50 is below 100 nM.

On to `CCN(C(=O)c1cc(F)ccc1Oc1cncnc1N1CC2(CCN(C[C@@H]3CC[C@@H](NS(=O)(=O)c4cccnc4)CO3)CC2)C1)C(C)C` [Example 63, N-Ethyl-5-fluoro-N-isopropyl-2-((4-(7-(((2S,5R)-5-(pyridine-3-sulfonamido)tetrahydro-2H-pyran-2-yl)methyl)-2,7-diazaspiro[3.5]nonan-2-yl)pyrimidin-5-yl)oxy)benzamide], for which the IC50 is below 100 nM.

Consider `CCN(C(=O)c1cc(F)ccc1Oc1cncnc1N1CC2(CCN(C[C@@H]3CC[C@@H](NS(=O)(=O)N4CCOCC4)CO3)CC2)C1)C(C)C` [Example 64, N-Ethyl-5-fluoro-N-isopropyl-2-((4-(7-(((2S,5R)-5-(morpholine-4-sulfonamido)tetrahydro-2H-pyran-2-yl)methyl)-2,7-diazaspiro[3.5]nonan-2-yl)pyrimidin-5-yl)oxy)benzamide], for which the IC50 is below 100 nM.

For `CCN(C(=O)c1cc(F)ccc1Oc1cncnc1N1CC2(CCN(C[C@@H]3CC[C@@H](NS(=O)(=O)c4ccccc4OC)CO3)CC2)C1)C(C)C` [Example 65, N-Ethyl-5-fluoro-N-isopropyl-2-((4-(7-(((2S,5R)-5-((2-methoxyphenyl)sulfonamido)tetrahydro-2H-pyran-2-yl)methyl)-2,7-diazaspiro[3.5]nonan-2-yl)pyrimidin-5-yl)oxy)benzamide], the IC50 was below 100 nM.

In the case of `CCN(C(=O)c1cc(F)ccc1Oc1cncnc1N1CC2(CCN(C[C@@H]3CC[C@@H](NS(=O)(=O)c4cccc(OC)c4)CO3)CC2)C1)C(C)C` [Example 66, N-Ethyl-5-fluoro-N-isopropyl-2-((4-(7-(((2S,5R)-5-((3-methoxyphenyl)sulfonamido)tetrahydro-2H-pyran-2-yl)methyl)-2,7-diazaspiro[3.5]nonan-2-yl)pyrimidin-5-yl)oxy)benzamide], the IC50 is below 100 nM.
